Columns and labels:
Format in all cases: in vivo
[1] = test system: mitophagy in C. elegans muscles; experiment: Mitophagy imaging with Mito-Rosella sensor; settings: 1 mM; L4 Rosella worms; 21° C.
Text: FIGS. 8A-8F. (FIG. 8A) is a schematic illustration of the Mito-Rosella sensor function. The Mito-Rosella sensor contains an N-terminal mitochondrial targeting signal, a pH-stable red fluorescent protein and a C-terminal pH-sensitive green fluorescent protein. In non-acidic environment the green to red fluorescent ratio is 0.6-0.8. However, in the autolysosome, where the pH is low, the green fluorescent is quenched and the green to red ratio is decreased to 0.2-0.5. By measuring the mitochondria red and green fluorescence, it was possible to monitor mitophagy in live worms. […] A bar graph presenting the results of mitophagy imaging experiments. L4 larval worms were treated with either 8 mM paraquat or 1 mM 1,8-Diaminooctane for 16 h, at 21° C. Control worms were treatment with similar volume of distilled water and incubated under similar conditions. Asterisks indicate significance for comparisons with control worms. […]
The Mito-Rosella sensor is composed of an N-terminal mitochondrial targeting sequence followed by a pH-insensitive red fluorescent protein (DsRed.T3) and a pH-sensitive green fluorescent protein (pHluorin) (FIG. 8A). In intact mitochondria the green to red fluorescence ratio is high (between 0.6-0.8). However, upon acidification in autolysosome (where mitochondria are degraded) the green fluorescence is quenched and thus the ration is decreased to 0.2-0.5.

C. elegans [2] = experiment: Lifespan assay; settings: 4 mM from L1; 21° C.; control 12 days; p=0.0063
Description: FIG. 10. […] Survival curves comparing the lifespans of worm growing on plates containing 0.25 mM and 4 mM 1,8-Diaminooctane (or vehicle as a control). The curves represent data from at least three independent experiments in which the lifespans of at least 145 worms were measured (for each condition). The lifespan medians and p values are indicated in the parentheses near the treatment legend. All lifespan assays were conducted at 21° C. and started with synchronized L1 larvae. Statistical analysis on lifespan survival curves was performed using the log-rank (Mantel-Cox).
Lifespan assays were performed as described in R. Abergel, L. Livshits, M. Shaked, A. K. Chatterjee, E. Gross, Synergism between soluble guanylate cyclase signaling and neuropeptides extends lifespan in the nematode Caenorhabditis elegans, Aging cell 16 (2) (2017) 401-413. In brief, 12 worms per plate were used. […] Worm's survival was scored every two days for live, dead (when it no longer responded to touch), and missing worms. The worms were transferred into fresh plates every 2 days to avoid progeny contamination and every 4 days when worms are in post-fertile stage, until the end of the experiment. Worms were scored as censored when they display internal progeny hatching (worm bagging), rupture, burrow in the agar or crawl off the plates, however, include them in the lifespan data analysis as censored. […]

C. elegans [3] = experiment: Off-food speed measurements; settings: 4 mM, aged worms, untreated worms declined significantly
Description: Bar graphs presenting the speed of 3 and 11 days post L1 wild-type worms that were treated with 4 mM 1,8-Diaminooctane or with vehicle as a control. The measurements of speed were performed in the absence of food (n=6 assays performed over at least 3 days). Asterisks indicate significance for comparisons with control worms (day 11). **p<0.01, two-way ANOVA with Bonferroni post-test. NS, Not significant. Error bars indicate SEM.
For speed-imaging experiments, low-peptone NGM agar plates were used. These plates were prepared as described above apart from the of Bacto peptone concentration that was decreased to 0.13 g/L and the use of 60 mm petri dished (instead of 35 mm dishes). […] In brief, eight synchronized worms (age 3 or 11 post-L1) were put (for 30 min) in a drop of M9 buffer to clean them from external and internal bacteria. During the 30 min the M9 buffer was replaced twice. After 30 min, the worms were placed at the center of a 17 mm diameter copper ring on an unseeded low-peptone plate. Recording was started after 5 min acclimation time. The worms were recorded for 10 min at 0.5 frames/s, using a Q-Imaging MicroPublisher 5.0 RTV Microscope Camera mounted onto an Olympus SZ61 stereo microscope. A custom-written MATLAB software was used to analyze the speed. For each treatment, at least 48 animals in 6 independent assays were measured.

NCCCCCCCCN [1,8-Diaminooctane]
mitophagy response (Mito-Rosella green to red fluorescence ratio) [1]: strong mitophagy response
median lifespan (C. elegans [2]): 15 days
speed (off food), day 11 post L1 (C. elegans [3]): remained high and was similar to day 3
speed (off food), day 11 post L1 (C. elegans [3]; listed as 1,8-diaminooctane): no change in the speed
